Results taken from patent US8598383B2, “Pharmaceutical composition for treating or preventing degenerative and inflammatory diseases” (Neurotech Pharmaceuticals Co., Ltd., priority 2006, dated 2013).

Experiments:
[1] = system: TNF-α, IL-1β and IL-6 in brain; experiment: Cytokines in brain of APP/PS1 dementia mice (ELISA); format: in vivo, mouse; conditions: 25 mg/kg/day in chow for 7 months, vs APP/PS1 fed general chow
Method: FIG. 25 are graphs showing the levels of TNF-α, IL-1β or IL-6 in brain of 10.5 month-old APP/PS1 dementia mouse (Tg+). The levels were evaluated by ELISA method.
After administration of drug for 7 months, the levels of TNF-α, IL-1β and IL-6 were quantified by ELISA (mean±SEM, n=3-5). Significant difference from control (APP/PS1 mouse fed with general chow only), p<0.05 using one-way ANOVA according to Student-Neuman-Keuls' test.

[2] = system: TNF-alpha gene expression in BV2 cell line; experiment: Suppressing effect on gene expression (RT-PCR), TNF-alpha; format: cell-based; conditions: gene expression vs LPS control, BV2, 24 hours
Method: Effects of the 2-hydroxybenzoic acid derivatives on iNOS gene expression in BV2 cell line were evaluated. 100 mm dish was inoculated with 1×10^6 cells of BV2 cell line, and treated with both LPS, inflammation-inducing material, and 1˜100 uM of the 2-hydroxybenzoic acid derivative of the present invention, together, in regular concentration interval. After 24 hours of incubation, RNA was extracted. Extracted RNA was used in reverse transcription and polymerase chain reaction, and expression patterns of TNF-alpha, IL-1beta and iNOS were compared.

[3] = system: APP/PS1 transgenic mice behavior; experiment: Elevated plus maze test in APP/PS1 mice; format: in vivo, mouse; conditions: 25 mg/kg/day for 7 months, vs chow only
Method: APP/PS1 transgenic mice were fed chow alone or containing 25 mg/kg/day of compound 2, for 7 months (3.5˜10.5 months). After administration of 7 months, Elevated plus maze test was performed to evaluate the behavior improvement. Elevated plus maze has two open arms (30 cm×6 cm×0.5 cm) and two closed arms (30 cm×6 cm×15 cm), and also has 6 cm×6 cm of center platform. In Elevated plus maze test, mouse was carefully laid in the center with the head of the mouse toward open arm. The time that the mouse spent in the open arm was recorded for 5 minutes (mean±SEM, n=3-5). *, Significant difference from control (APP/PS1 mouse fed with general chow only), p<0.05 using one-way ANOVA according to Student-Neuman-Keuls' test.

[4] = system: gastric bleeding caused by alcohol; experiment: Alcoholic gastritis; format: in vivo, rat; conditions: pre-treated 1 hour before alcohol
Method: FIG. 9 is results showing protecting effect of compound 2 on alcoholic gastritis. A is a picture of normal rat stomach. B is a picture of rat stomach, wherein gastrointestinal bleeding was caused by oral administration of ethanol (4 ml/kg) after 250 g of rat was fasted for 24 hours. C is a picture of rat stomach, wherein rat was pre-treated with compound 21 hour before induction of gastrointestinal bleeding, and stomach was taken out 90 minutes after gastrointestinal bleeding. D is a graph quantifying the degree of stomach injury.
Effect of the 2-hydroxybenzoic acid derivative on alcoholic gastritis was evaluated. 250 g of rat was fasted for 24 hours, and alcohol was orally administered to cause gastric bleeding (B).

[5] = system: thermal hyperalgesia induced by carrageenan; experiment: Carrageenan-induced thermal hyperalgesia; format: in vivo, rat
Method: FIG. 11 is results showing efficacy of compound 2 through thermal hyperalgesia induced by carrageenan, one of arthritis animal models. 2% carrageenan was intradermally injected into hindpaw of rat to induce thermal hyperalgesia.
Analgesic effect of compound 2, one example of the 2-hydroxybenzoic acid derivative, was evaluated in arthritis model. 2% carrageenan was intradermally injected into left pes of rat, and 3-300 mg/kg of compound 2 was orally administered to evaluate effect of compound 2 on thermal hyperalgesia of arthritis model.

[6] = system: collagen-induced arthritis; experiment: Collagen-induced arthritis model (arthritic index); format: in vivo, mouse; conditions: 25 mg/kg/day intraperitoneal
Method: FIG. 15 is results showing efficacy through arthritis animal model induced by collagen. 25 mg/kg of compound 2, 3 or 18, or methotrexate (control, MTX, 1 mg/kg/week) was intraperitoneally injected after administration of collagen.
FIG. 16 is results showing efficacy of compounds 6 and 11 through arthritis animal model induced by collagen. Collagen was intradermally injected two times with 2 week-interval. One week later, compound 6, compound 11 and methotrexate (control) were intraperitoneally injected. Then, the animals were observed everyday for 2-3 weeks, and results was evaluated by arthritis index.
To evaluate the efficacy of the 2-hydroxybenzoic acid derivative, collagen-induced arthritis model (rheumarthritis animal model) was used. Bovine type II collagen was mixed with complete Freund's adjuvant to make an emulsion, and the emulsion was intradermally injected into the origin site of 8˜10 week-old DBA/1LacJ mouse tail. Intradermal boosting was performed by the same method 2 weeks later. 25 mg/kg/day of compounds 2, 3 and 18, 1 mg/kg/week of methotrexate (comparative example) or 10% vehicle (control) were intraperitoneally injected one week after the second intradermal injection of collagen (FIG. 15). Pictures of foot edema of normal rat (sham), collagen-administered rat (collagen) and compound 18-administered rat (compound 18, 25 mg/kg/day injection) were shown in FIG. 14.
In addition, 50 mg/kg/day of compounds 6 and 11, and 5 mg/kg/2 days of methotrexate (comparative example) were intraperitoneally injected. Phosphate buffered saline was injected as control (FIG. 16). For 2˜3 weeks, the degree of arthritis was observed everyday, and the result was evaluated according to the below arthritic index using edema.
4 paws were evaluated as from 0 to 4 point, Total points: 16

TNF-α mRNA in AGS cell = experiment: Expression of TNF-α mRNA in ethanol-treated AGS cells (RT-PCR); format: cell-based, human; conditions: 1-100 uM, ethanol 24 hours
Method: FIG. 7 is a picture showing the expression degree of TNF-α mRNA. Cultured AGS cell was treated with 25 mM of alcohol for 24 hours, alone or with compound 2 having indicated concentration. Then, mRNA was extracted and evaluated by RT-PCR method.
As one marker of inflammation, the expression level of TNF-α mRNA was evaluated by RT-PCR method. Samples treated with ethanol for 24 hours were used.

[7] = system: gastric bleeding induced by 60% EtOH/150 mM HCl; experiment: Gastritis induced by alcohol and hydrochloric acid; format: in vivo, rat; conditions: oral
Method: FIG. 8 is results showing protecting effect of compound on gastrointestinal bleeding caused by alcohol/hydrochloric acid (EtOH/HCl). A is a picture of normal rat stomach. B is a picture of rat stomach, wherein gastrointestinal bleeding was caused by oral administration of 60% EtOH/150 mM HCl after 200˜250 g of rat was fasted for 24 hours. C is a picture of rat stomach, wherein rat was pre-treated with compound 230 minutes before administration of alcohol/HCl, and stomach was taken out 90 minutes after gastrointestinal bleeding. D is a graph quantifying damaged area to evaluate the degree of stomach injury.
Effect of the 2-hydroxybenzoic acid derivative on gastritis induced by alcohol and hydrochloric acid was evaluated. 200˜250 g of male SD rat was fasted for 24 hours, and 60% EtOH/150 mM HCl was orally administered to induce gastric bleeding (gastric injury). Compound 2 was orally administered according to indicated dose 30 minutes before the gastric bleeding, and stomach was taken out 90 minutes after gastric bleeding to evaluate the degree of gastric injury.

O=C(O)c1cc(NCCc2ccc(C(F)(F)F)cc2)ccc1O [compound 2, 2-hydroxy-5-[2-(4-trifluoromethyl-phenyl)-ethylamino]-benzoic acid]
levels of TNF-α, IL-1β and IL-6 in brain [1]: significantly reduced the levels of TNF-α, IL-β and IL-6 | inhibition at 100 µM ([2]; Mus musculus, BV-2, 24 h): 63.2% | % Inhibition (in 100 uM) TNF-alpha [2]: 63.2% | time spent in the open arm [3]: decreased the time for mouse to stay in the open arm | gastric bleeding [4]: significantly reduced gastric bleeding | thermal hyperalgesia, comparison with ibuprofen ([5]; 100 mg treatment): equivalent level of decreasing effect with 50 mg/kg of ibuprofen | reduction of thermal hyperalgesia ([5]; 300 mg/kg oral): over 90% | thermal hyperalgesia ([5]; 3-300 mg/kg oral): decreased thermal hyperalgesia in a dose-dependent manner | arthritic index [6]: apparent reducing effect | expression of TNF-α mRNA (TNF-α mRNA in AGS cell): completely suppressed | toxicity in EtOH/HCl gastritis test [7]: did not show any toxicity | protection against gastric bleeding ([7]; 30 minutes before EtOH/HCl, stomach taken out 90 minutes after): protected stomach against gastric bleeding induction
